Target: Nicotinamide phosphoribosyltransferase (Homo sapiens, UniProt P43490)
Assay: Biochemical Inhibition Assay

Sequence of Nicotinamide phosphoribosyltransferase (P43490 whole entry): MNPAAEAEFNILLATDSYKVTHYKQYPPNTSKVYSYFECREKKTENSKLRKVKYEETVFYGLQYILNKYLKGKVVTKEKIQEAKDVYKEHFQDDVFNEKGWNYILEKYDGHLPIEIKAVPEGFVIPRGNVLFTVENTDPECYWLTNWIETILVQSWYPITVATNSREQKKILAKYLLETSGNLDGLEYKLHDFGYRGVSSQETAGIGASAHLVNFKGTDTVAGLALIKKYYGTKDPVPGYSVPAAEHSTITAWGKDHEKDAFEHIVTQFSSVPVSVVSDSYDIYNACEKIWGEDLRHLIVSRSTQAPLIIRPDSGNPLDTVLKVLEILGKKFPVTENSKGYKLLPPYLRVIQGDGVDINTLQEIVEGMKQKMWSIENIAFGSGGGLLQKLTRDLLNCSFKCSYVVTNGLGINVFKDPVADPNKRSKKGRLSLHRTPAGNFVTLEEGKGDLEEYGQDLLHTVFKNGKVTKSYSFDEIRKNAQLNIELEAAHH

IC50: 12 nM
Structure (SMILES): C[C@H]1C2C[C@H](C[C@@H]1NS(=O)(=O)c1ccc(NC(=O)NCc3cccnc3)cc1)C2(C)C [US11279687, Compound 86]

Reference: BindingDB's records for patent US11279687 (Valo Health, 2022)
